Results on two compounds are retold here after patent US9795625B2, “Uridine and uridine analogues for treatment of specific lung diseases, namely COPD and pulmonary fibrosis” (Universitaetsklinikum Freiburg, priority 2011, dated 2017).

One data set deals with smoke exposed mice. In words: Acute cigarette smoke exposure, i.t. uridine, BAL fluid analysis. Type of data set: in vivo, Male C57BL/6 mice. How it is done: Male C57BL/6 mice were exposed to whole smoke of five cigarettes (commercial Virginia filter cigarettes: 12 mg of tar and 0.9 mg of nicotine) or room air for 20 min on three consecutive days in especially designed macrolon cages (Tecniplast, Buguggiate, Italy), as previously described (Cavarra E et al., Human SLPI inactivation after cigarette smoke exposure in a new in vivo model of pulmonary oxidative stress, Am J Physiol Lung Cell Mol Physiol. 2001 August; 281(2):L412-7, Cicko S et al., Purinergic receptor inhibition prevents the development of smoke-induced lung injury and emphysema, J Immunol. 2010 Jul. 1; 185(1):688-97). The smoke was produced by the burning of a cigarette and was introduced into the chamber with the airflow generated by a mechanical ventilator (7025 Rodent Ventilator, Ugo Basile, Biological Research Instruments, Comerio, Italy), at a rate of 250 ml/min. A second mechanical ventilator was used to provide room air for dilution (1:8) of the smoke-stream.
In some experiments, intratracheal treatment (i.t.) was performed prior to each smoke exposure: animals were anaesthetized by intraperitoneal injection of Ketamin/Xylazin and received an i.t. injection of uridine in a total volume of 80 μl (1 mM or 10 mM) or PBS which was used as vehicle. One hour after the last smoke challenge, mice were sacrificed and bronchoalveolar lavage (BAL) was performed.
BAL fluid was collected by cannulating the trachea under deep pentobarbital anesthesia and washing the lung three times with 1 ml PBS containing 0.1 mM EDTA, as previously described (Idzko M et al., Extracellular ATP triggers and maintains asthmatic airway inflammation by activating dendritic cells, Nat Med. 2007 Aug.; 13(8):913-9, Cicko S et al., Purinergic receptor inhibition prevents the development of smoke-induced lung injury and emphysema, J Immunol. 2010 Jul. 1; 185(1):688-97). Total cell numbers were counted and differential cell counts were performed on cytospin preparations after staining with Diff-Quick (Medion Diagnostics, Dudingen, Switzerland). Differential cell counts were made on >200 cells using standard morphological criteria and FACS-analysis.
After counting and washing, BAL cells were stained for 30 min with anti-MHC class II (macrophages/DC), anti-7/4 (Caltag) FITC (neutrophiles; Abd-Serotec, Düsseldorf, Germany), anti-CD3 and anti-CD19 cy-chrome (lymphocytes), and anti-CD 11c APC macrophages/DCs (eBioscience, San Diego, Calif.) in PBS containing 0.5% BSA and 0.01% sodium azide. Differential cell counts were analyzed by flow cytometry, as described previously (Idzko M et al., Extracellular ATP triggers and maintains asthmatic airway inflammation by activating dendritic cells, Nat Med. 2007 Aug.; 13(8):913-9 and Cicko S et al., Purinergic receptor inhibition prevents the development of smoke-induced lung injury and emphysema, J Immunol. 2010 Jul. 1; 185(1):688-97).
To measure ATP concentrations in BALF in mice, fresh BALF supernatants were used, according to manufacturer's instructions (ATPlite Assay, PerkinElmer, Wellesley Mass.), but without the cell lysis step to avoid any contaminating intracellular ATP, as described previously (Idzko M et al., Extracellular ATP triggers and maintains asthmatic airway inflammation by activating dendritic cells, Nat Med. 2007 Aug.; 13(8):913-9 Cicko S et al., Purinergic receptor inhibition prevents the development of smoke-induced lung injury and emphysema, J Immunol. 2010 Jul. 1; 185(1):688-97)).
(§1) Cytokine concentrations in BALF were measured using commercially available ELISA kits (R&D Systems, Minneapolis, Minn.) according to the manufacturer's recommendations.
(§2) Statistical significance of differences between samples was calculated using ANOVA, followed by Bonferroni comparison test. Difference were considered significant if p<0.05.

The subject of data set [1] is murine model of chronic smoke exposure. Put plainly: Chronic exposure to cigarette smoke (pulmonary emphysema), lung morphometry. The data set is classed as in vivo, male C57BL/6 mice. As to conditions: uridine 0.6 mg/kg oral gavage 45 min prior to smoke exposure vs non-uridine treated mice (FIG. 2). The source says: The methodology for chronic smoke exposure has been previously described (Cavarra E et al., Human SLPI inactivation after cigarette smoke exposure in a new in vivo model of pulmonary oxidative stress, Am J Physiol Lung Cell Mol Physiol. 2001 August; 281(2):L412-7 Cicko S et al., Purinergic receptor inhibition prevents the development of smoke-induced lung injury and emphysema, J Immunol. 2010 Jul. 1; 185(1):688-97)). Briefly, male C57BL/6 mice were exposed to either the smoke of 3 cigarettes per day (commercial Virginia filter cigarettes: 12 mg of tar and 0.9 mg of nicotine), 5 days per week or to room air (controls) for 4 or 7 months, respectively.
When indicated, animals received an oral treatment by gavage with Uridine (0.6 mg/kg) 45 min prior to smoke exposure.
At the end of the respective time period, animals were sacrificed; BAL was performed followed by lung resection. […] Lung volume was measured by water displacement. […]
This Lm value was used to calculate the ISA (which represent the gas exchange surface), necessary for evaluating the degree of emphysema, from the equation 4V/Lm, where V is the postfixation lung volume. For the determination of the Lm for each pair of lungs, 40 histological fields were evaluated both vertically and horizontally.
Statistical significance of differences between samples was calculated using ANOVA, followed by Bonferroni comparison test. […]

Data set [2] concerns BLM-induced pulmonary fibrosis. In words: Mouse model of bleomycin (BLM) induced pulmonary fibrosis. Type of data set: in vivo, male C57/B16 mice. The protocol:
The induction of BLM induced pulmonary fibrosis was performed as previously described (Gasse P, Mary C, Guenon I, Noulin N, Charron S, Schnyder-Candrian S, Schnyder B, Akira S, Quesniaux V F, Lagente V, et al. II-1r1/myd88 signaling and the inflammasome are essential in pulmonary inflammation and fibrosis in mice. J Clin Invest 2007; 117(12):3786-3799). Then, male C57/B16 animals were treated with the uridine p.o. (200 μl 10 mM) or vehicle 14 days after BLM-instillation for 3 days a week. At day 30 animals were examined for the typical features of BLM-induced lung injury. Therefore BALF was collected and differential cell count was analyzed as described above.
as §1
The amount of lung collagen was measured in the lung tissue using the Sircol-assay according to the manufacturer's recommendations (Biocolor, Life-Science, UK).
as §2

Data set [3] has as its system asthmatic airway inflammation. As to conditions: OVA-alum model and HDM model in mice, local administration; cited from earlier work.
Data set [4] concerns mitochondrial toxicity caused by highly active antiretroviral therapy (HAART). As to conditions: cited from earlier work.
For data set [5], the system named is sephadex-induced acute lung inflammation. The note with it: sephadex-induced acute lung inflammation model; cited from earlier work.
Where [6] appears, read: BALF, uridine i.t. 1 mM or 10 mM.
The mark [7] stands for this setting: BALF, uridine p.o. 200 μl 10 mM, day 30.
Where [8] appears, read: uridine p.o. 200 μl 10 mM, day 30.

`O=c1ccn([C@@H]2O[C@H](CO)[C@@H](O)[C@H]2O)c(=O)[nH]1` [uridine]: in the data set on smoke exposed mice (setting [6]), the “level of IFN-γ” value is “dose dependently reduced”, the “level of IL-1β” value is given as “dose dependently reduced”, the “level of IL-6” value is “dose dependently reduced” and the “level of KC” value was “dose dependently reduced”. In the data set with smoke exposed mice (setting [6]), the “level of MIP-2” value is “dose dependently reduced”, the number of macrophages result is recorded as “dose dependently reduced” and the number of neutrophils entry is recorded as “dose dependently reduced”. Also, in the data set on smoke exposed mice (uridine i.t. 80 μl 1 mM or 10 mM vs non uridine treated mice (FIG. 1b)), the “amount of extracellular ATP in BALF” value is recorded as “significantly be reduced in a dose dependent manner”. In addition, in data set [1], the “internal surface area of the lung” value is given as “higher” and the mean linear intercept entry is given as “significantly lower”. In data set [2] (setting [7]), the IL-1 beta entry is recorded as “down-regulation”, the IL-6 result was “down-regulation”, the KC result is on record as “down-regulation” and the TNFalpha result is on record as “down-regulation”. Besides, the BLM-induced pulmonary fibrosis result in data set [2] (uridine p.o 3×/week from day 14, day 30 (FIG. 3)) is listed as “decreases”. Moreover, the “amount of collagen in the lung” value in data set [2] (uridine p.o. 200 μl 10 mM 3 days a week from day 14, day 30) is recorded as “significantly reduce”. Also, in data set [2] (uridine p.o. 200 μl 10 mM, after bleomycin instillation (FIG. 3)), the TIMP-1 entry is given as “reduced to normal levels”. Also, in data set [2] (setting [8]), the “lymphocytes in BALF” value was “down-regulation”, the “macrophages in BALF” value is “down-regulation” and the “neutrophils in BALF” value is reported as “down-regulation”. The asthmatic airway inflammation result in data set [3] is on record as “suppress”. For the same compound, the “efficacy in reduction of mitochondrial toxicity” value in data set [4] (human, HAART) is “efficacious”. For the same compound, the safety entry in data set [4] (in vivo) is given as “safe”.

Take `O=c1[nH]c(=S)ccn1[C@@H]1O[C@H](CO)[C@@H](O)[C@H]1O` [4-thiouridine]: the anti-inflammatory effects entry in data set [5] is recorded as “anti-inflammatory effects similar to those of uridine”.
